{
  "source": "patent US9358233B2",
  "about": "“Method for treating acute myeloid leukemia” (priority 2010, dated 2016)",
  "tested_on": "patients with relapsed/refractory AML",
  "assay": "Clinical trial of BI 6727 in combination with LD-Ara-C in AML patients",
  "format": "in vivo",
  "method": "BI 6727 (350 mg) was administered as a one-hour intravenous infusion on Days 1+15 every 28 days in combination with fixed dose LD-Ara-C (low-dose cytarabine) (20 mg twice daily s.c. [subcutaneous]). The starting dose of BI 6727 was based on the MTD previously determined in solid tumor patients. Patients with no progression after the first cycle were allowed to continue treatment.",
  "key": {"[1]": {"conditions": "preliminary, 32 patients with relapsed/refractory AML, different BI 6727 doses in combination with LD-Ara-C"}},
  "data": [
    {"smiles": "CC[C@@H]1C(=O)N(C)c2cnc(Nc3ccc(C(=O)N[C@H]4CC[C@H](N5CCN(CC6CC6)CC5)CC4)cc3OC)nc2N1C(C)C", "note": "[BI 6727, N-[trans-4-[4-(cyclopropylmethyl)-1-piperazinyl]cyclohexyl]-4-[[(7R)-7-ethyl-5,6,7,8-tetrahydro-5-methyl-8-(1-methylethyl)-6-oxo-2-pteridinyl]amino]-3-methoxy-benzamide]", "values": [
      {"measurement": "MTD", "setting": "BI 6727 d1+15q28d in combination with LD-Ara-C", "value": 350, "unit": "mg"},
      {"measurement": "DLTs as rated per protocol (kind)", "setting": "human, in vivo", "value": "pneumonia, mucositis, hypersensitivity/allergic reaction and myocardial infarction"},
      {"measurement": "Dose-limiting toxicities (DLTs), number of patients", "setting": "human, in vivo", "value": "four"},
      {"measurement": "Clinical activity", "setting": "in combination with LD-Ara-C, AML patients", "value": "showed first signs of clinical activity"},
      {"measurement": "Best response: incomplete blood count recovery (CRi) or complete remission (CR), number of patients", "setting": "[1]", "value": "seven"},
      {"measurement": "Best response: partial remission, number of patients", "setting": "[1]", "value": 1, "unit": "patients"},
      {"measurement": "Best response: temporarily stable blood values (\"no change\"), number of patients", "setting": "[1]", "value": "Six"},
      {"measurement": "Progression during or at the end of the first-treatment cycle, number of patients", "setting": "[1]", "value": "Eleven"}
    ]}
  ]
}
